We go through 1 compound from patent US20080051348A1, “TREATMENT OF INFECTIONS AND OTHER DISORDERS” (RegeneRx Biopharmaceuticals, Inc., priority 2002, published 2008).

In brackets after ≈: the same amount, converted by molar mass.

Holding throughout (format): cell-based
One assay concerns Escherichia coli. The assay is described as follows: Antimicrobial activity, Example 3.
Assay [1] relates to Staphylococcus aureus. Kind of assay: Antimicrobial activity, Example 3.
For assay [2], the system named is Staphylococcus aureus. Kind of assay: Antimicrobial assay, Example 2. The method, then:
(§1) Antimicrobial assays were performed to assess peptide activity against Pseudomonas aeruginosa (PA), Staphylococcus aureus ([…]), and Staphylococcus epidermidis (SE).

Assay [3] has as its system Staphylococcus epidermidis (SE). Kind of assay: Antimicrobial assay, Example 2. The protocol: as §1
Another assay has as its system Pseudomonas aeruginosa. Kind of assay: Antimicrobial assay, Example 1. The protocol: The purpose of this study was to study the antimicrobial activity of peptides against common pathogens in vitro. Antimicrobial assays were performed to assess peptide activity against Pseudomonas aeruginosa. […]

Assay [4] relates to Pseudomonas aeruginosa (PA). The protocol: as §1

As to `CC[C@H](C)[C@H](NC(=O)[C@H](CCC(=O)O)NC(=O)[C@H](C)NC(=O)[C@H](CCSC)NC(=O)[C@H](CC(=O)O)NC(=O)[C@@H]1CCCN1C(=O)[C@H](CCCCN)NC(=O)[C@H](CC(=O)O)NC(=O)[C@H](CO)NC(C)=O)C(=O)N[C@@H](CCC(=O)O)C(=O)N[C@@H](CCCCN)C(=O)N[C@@H](Cc1ccccc1)C(=O)N[C@@H](CC(=O)O)C(=O)N[C@@H](CCCCN)C(=O)N[C@@H](CO)C(=O)N[C@@H](CCCCN)C(=O)N[C@@H](CC(C)C)C(=O)N[C@@H](CCCCN)C(=O)N[C@@H](CCCCN)C(=O)N[C@H](C(=O)N[C@@H](CCC(=O)O)C(=O)N[C@H](C(=O)N[C@@H](CCC(N)=O)C(=O)N[C@@H](CCC(=O)O)C(=O)N[C@@H](CCCCN)C(=O)N[C@@H](CC(N)=O)C(=O)N1CCC[C@H]1C(=O)N[C@@H](CC(C)C)C(=O)N1CCC[C@H]1C(=O)N[C@@H](CO)C(=O)N[C@@H](CCCCN)C(=O)N[C@@H](CCC(=O)O)C(=O)N[C@H](C(=O)N[C@H](C(=O)N[C@@H](CCC(=O)O)C(=O)N[C@@H](CCC(N)=O)C(=O)N[C@@H](CCC(=O)O)C(=O)N[C@@H](CCCCN)C(=O)N[C@@H](CCC(N)=O)C(=O)N[C@@H](C)C(=O)NCC(=O)N[C@@H](CCC(=O)O)C(=O)N[C@@H](CO)C(=O)O)[C@@H](C)CC)[C@@H](C)O)[C@@H](C)O)[C@@H](C)O` [Tβ4, thymosin β4], the “concentrations showing antimicrobial activity” value in the assay on Escherichia coli and in the assay with Staphylococcus aureus [1] was 5-20 n mol/ml throughout. Further, the “concentrations showing increasingly dose-dependent activity” value in the assay on Escherichia coli and in the assay on Staphylococcus aureus [1] was 50-200 n mol/ml each time. Besides, the “effectiveness against staphylococcal strains” value (with Staphylococcus aureus [2]; in assay [3]) was “weakly effective” each time. Further, the “lowest dose where activity and/or protection was demonstrated” value with Pseudomonas aeruginosa (against Pseudomonas aeruginosa) was 0.5 to 1 µg/mL. The “EC50 against Pseudomonas aeruginosa” value with Pseudomonas aeruginosa (in vitro) was found to be 26.5 ± 1.6 µg/mL (≈ 5.34 µM). Moreover, the “EC50 against PA” value in assay [4] came to 18.1 ± 1.7 µg/mL (≈ 3.65 µM).
